Test results published in patent publication US11089783B2, “2-(het)aryl-substituted fused heterocycle derivatives as pesticides” (Bayer Aktiengesellschaft, priority 2017, dated 2021).

Columns and labels:
Type in all cases: in vivo
Myzus persicae [1] = experiment: Myzus persicae spray test (MYZUPE), Chinese cabbage leaf discs; settings: Myzus persicae, foliar, 120 h; for Emax at 4 g/ha: MYZUPE, 5 dat, read-out: % efficacy
Outline: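 Leaf discs of Chinese cabbage carrying all stages of green peach aphid were sprayed with compound formulated in solvent and diluted with water containing emulsifier at 1000 ppm. Percent efficacy (100% = all aphids dead) was scored after 5 days or after the desired time.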

Ctenocephalides felis [2] = experiment: Ctenocephalides felis oral test; settings: 100 ppm, after 2 days
Method: Solvent: dimethyl sulfoxide To produce a suitable active ingredient formulation, 10 mg of active ingredient are mixed with 0.5 ml of dimethyl sulfoxide. Dilution with citrated cattle blood gives the desired concentration. About 20 unfed adult cat fleas (Ctenocephalides felis) are placed into a chamber which is closed at the top and bottom with gauze. A metal cylinder whose bottom end is closed with parafilm is placed onto the chamber. The cylinder contains the blood/active ingredient formulation, which can be imbibed by the fleas through the parafilm membrane. After 2 days, the kill in % is determined. 100% means that all of the fleas have been killed; 0% means that none of the fleas have been killed.

Myzus persicae [3] = experiment: Myzus persicae oral test; settings: 120 h, after 5 days, read-out: efficacy
Outline: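 Compound solution in IPL41 insect medium with sugar was sealed under parafilm, through which a mixed population of green peach aphids fed. Mortality was scored after 5 days as % efficacy, with 100% meaning all aphids killed.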

Meloidogyne incognita = Meloidogyne incognita test (MELGIN); settings: Meloidogyne incognita, 336 h, 14 days (14 dat), read-out: efficacy (nematicidal, gall formation)
Outline: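 Sand with lettuce seeds, M. incognita egg/larvae suspension and aqueous dilution of compound concentrate. Nematicidal efficacy scored from gall (root-knot) formation after 14 days or the desired time, as % relative to untreated control (100% = no galls; 0% = as control).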

Ctenocephalides felis [4] = experiment: Ctenocephalides felis in vitro contact test with adult cat fleas; settings: 5 μg/cm^2 (=500 g/ha), after 48 h
Method: For the coating of the test tubes, 9 mg of active ingredient are first dissolved in 1 ml of acetone p.a. and then diluted to the desired concentration with acetone p.a. 250 μl of the solution are distributed homogeneously on the inner walls and the base of a 25 ml glass tube by turning and rocking on an orbital shaker (rocking rotation at 30 rpm for 2 h). With 900 ppm of active ingredient solution and internal surface area 44.7 cm^2, given homogeneous distribution, an area-based dose of 5 μg/cm^2 is achieved. After the solvent has evaporated off, the tubes are populated with 5-10 adult cat fleas (Ctenocephalides felis), sealed with a perforated plastic lid and incubated in a horizontal position at room temperature and ambient humidity. After 48 h, efficacy is determined. To this end, the tubes are stood upright and the fleas are knocked to the base of the tube. Fleas which remain motionless at the base or move in an uncoordinated manner are considered to be dead or moribund. […] 100% efficacy means that all the fleas were dead or moribund. 0% efficacy means that no fleas were harmed.

Phaedon cochleariae = Phaedon cochleariae spray test (PHAECO), Chinese cabbage leaf discs; settings: Phaedon cochleariae, foliar, 168 h; for pest or weed control at 100 g/ha: 7 days (7 dat), read-out: efficacy
Outline: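 Chinese cabbage (Brassica pekinensis) leaf discs sprayed with compound in water with 1000 ppm emulsifier, then after drying infested with Phaedon cochleariae larvae. Efficacy (% larvae killed) scored after 7 days or the chosen interval.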

[5] = 5 days (5 dat), read-out: efficacy

| Structure (SMILES) | Emax at 4 g/ha (Myzus persicae [1]) [%] | pest or weed control at 20 g/ha (Myzus persicae [1]; [5]) [%] | efficacy (kill) (Ctenocephalides felis [2]) [%] | pest or weed control at 0.8 ppm (Myzus persicae [3]) [%] | pest or weed control at 20 ppm (Meloidogyne incognita) [%] | efficacy (Ctenocephalides felis [4]) [%] | pest or weed control at 100 g/ha (Phaedon cochleariae) [%] | Emax at 4 g/ha (Phaedon cochleariae; PHAECO, 4 g/ha, 7 dat, read-out: % efficacy) [%] | percent efficacy (larval mortality) at a fixed application rate at 20 g/ha (Phaedon cochleariae; PHAECO, 7 dat) [%] | percent efficacy (larval mortality) at a fixed application rate at 4 g/ha (Phaedon cochleariae; PHAECO, 4 g/ha, 7 dat) [%] | pest or weed control at 100 g/ha (Myzus persicae [1]; 100 g/ha, 5 days (5 dat), read-out: efficacy) [%] |
| --- | --- | --- | --- | --- | --- | --- | --- | --- | --- | --- | --- |
| CCS(=O)(=O)c1ccc(N(C)C(=O)NC)nc1-c1nc2cc(C(F)(F)C(F)(F)F)nnc2n1C [Example I-09] | 70 | 100 | 100 | 90 | 100 | 100 | 100 | 83 | 100 | – | – |
| CCNC(=O)Nc1ccc(S(=O)(=O)CC)c(-c2nc3cc(C(F)(F)C(F)(F)F)nnc3n2C)n1 [Example I-13] | – | 90 | 100 | 100 | 100 | 100 | 100 | – | 100 | 100 | – |
| CCS(=O)(=O)c1ccc(NC(=O)NC)nc1-c1nc2cc(C(F)(F)C(F)(F)F)nnc2n1C [Example I-08, 1-{5-(ethylsulfonyl)-6-[7-methyl-3-(pentafluoroethyl)-7H-imidazo[4,5-c]pyridazin-6-yl]pyridin-2-yl}-3-methylurea] | – | 100 | 100 | 90 | 100 | – | 100 | – | – | – | 90 |
| CCS(=O)(=O)c1ccc(NC(=O)N(C)C)nc1-c1nc2cc(C(F)(F)C(F)(F)F)nnc2n1C [Example I-10] | 70 | 100 | 100 | 100 | 100 | 100 | 100 | – | – | – | – |
